Usually EC50 stands for the concentration that produces a half-maximal response. High values mean lower potency in that assay, low ones higher potency in that assay.

Our source for the EC50 values is patent US6841566B2, “Viral polymerase inhibitors” (Boehringer Ingelheim, Ltd., priority 2001, dated 2005).

Where only a bound is given, the exact number is not on record here.

The test concerns Huh7 cells that stably maintain a subgenomic HCV replicon (S22.3 cell-line). Description: Cell based HCV RNA replication assay (S22.3 replicon cells, real-time RT-PCR). Conditions: Hepatitis C virus, Huh-7, 72 hours. Here is the method: Huh7 cells that stably maintain a subgenomic HCV replicon were established as previously described (Lohman et al., 1999. Science 285: 110-113) and designated as the S22.3 cell-line. S22.3 cells were maintained in Dulbecco's Modified […] Medium (DMEM) supplemented with 10% FBS and 0.5 mg/mL neomycin (Standard Medium). During the assay, DMEM medium supplemented with 10% FBS, containing 0.5% DMSO and lacking neomycin was used (Assay Medium). 16 hours prior to compound addition, S22.3 cells are trypsinized and diluted to 100 000 cells/ml in Standard Medium. 100μL (10 000 cells) are distributed into each well of a 96-well plate. The plate was then incubated at 37° C. with 5% CO2 until the next day.
10 μL of test compound (in 100% DMSO) was added to 2 ml of Assay Medium for a final DMSO concentration of 0.5% and the solution was sonicated for 15 min and filtered through a […] Millipore Filter Unit. 900 μl was transferred into row A of a Polypropylene Deep-Well Titer Plate. Rows B to H, contain 400 μL aliquots of Assay Medium (containing 0.5% DMSO), and were used to prepare serial dilutions (1/2) by transferring 400 μl from row to row (no compound was included in row H).
Cell culture medium was aspirated from the 96-well plate containing the S22.3 cells. 175 μL of assay medium with the appropriate dilution of test compound was transferred from each well of the compound plate to the corresponding well of the cell culture plate (row H was used as the “No inhibition control”). The cell culture plate was incubated at 37° C. with 5% CO2 for 72 hours.
Following the 72 hour incubation period, the total cellular RNA was extracted from the S22.3 cells of the 96-well plate using the RNeasy 96 kit (Qiagen®, RNeasy Handbook. 1999.). Briefly, assay medium was completely removed from cells and 100 μL of RLT buffer (Qiagen®) containing 143 mM β-mercaptoethanol was added to each well of the 96-well cell-culture plate. The microplate was gently shaken for 20 sec. 100 μL of 70% ethanol was then added to each microplate well, and mixed by pipetting. The lysate was removed and applied to the wells of a RNeasy 96 (Qiagen®) plate that was placed on top of a Qiagen® Square-Well Block. The RNeasy 96 plate was sealed with tape and the Square-Well Block with the RNeasy 96 plate was loaded into the holder and placed in a rotor bucket of a 4K15C centrifuge. The sample was centrifuged at 6000 rpm (˜5600×g) for 4 min at room temperature. The tape was removed from the plate and 0.8 ml of Buffer RW1 (Qiagen® RNeasy 96 kit) was added to each well of the RNeasy 96 plate. The RNeasy 96 plate was sealed with a new piece of tape and centrifuged at 6000 rpm for 4 min at room temperature. The RNeasy 96 plate was placed on top of another clean Square-Well Block, the tape removed and 0.8 ml of Buffer RPE (Qiagen® RNeasy 96 kit) was added to each well of the RNeasy 96 plate. The RNeasy 96 plate was sealed with a new piece of tape and centrifuged at 6000 rpm for 4 min at room temperature. The tape was removed and another 0.8 ml of Buffer RPE (Qiagen® RNeasy 96 kit) was added to each well of the RNeasy 96 plate. The RNeasy 96 plate was sealed with a new piece of tape and centrifuged at 6000 rpm for 10 min at room temperature. Tape was removed, the RNeasy 96 plate was placed on top of a rack containing 1.2-mL collection microtubes. The RNA was eluted by adding 50 μL of RNase-free water to each well, sealing plate with a new piece of tape and incubated for 1 min at room temperature. The plate was then centrifuged at 6000 rpm for 4 min at room temperature. The elution step was repeated with a second volume of 50 μl RNase-free water. The microtubes with total cellular RNA are stored at −70° C.
RNA was quantified on the STORM® system (Molecular Dynamics®) using the RiboGreen® RNA Quantification Kit (Molecular Probes®). Briefly, the RiboGreen reagent was diluted 200-fold in TE (10 mM Tris-HCl pH=7.5, 1 mM EDTA). Generally, 50 μL of reagent was diluted in 10 mL TE. […]
For orientation: Replicon systems follow genome replication, usually without infectious particles.

Regarding `O=C(O)/C=C/c1ccc(NC(=O)C2(NC(=O)c3ccc4c(c3)nc(-c3ccccn3)n4C3CCCCC3)CCCC2)cc1` [compound 2005], the EC50 was no more than 5 µM. Turning to `CC(NC(=O)c1ccc2c(c1)nc(-c1ccoc1)n2C1CCCCC1)C(=O)Nc1cccc(-c2cccc(N)c2)c1` (stereo not drawn) [compound 1022], the EC50 lay within 5 to 50 µM. The molecule `O=C(NC1(C(=O)Nc2ccc3nc(S)sc3c2)CCCC1)c1ccc2c(c1)nc(-c1ccoc1)n2C1CCCCC1` [compound 1078] came in with an EC50 of no more than 5 µM. As to `Cn1cccc1-c1nc2cc(C(=O)NC3(C(=O)Nc4ccc(/C=C/C(=O)O)cc4)CCCC3)ccc2n1C1CCCCC1` [compound 2048], the EC50 was no more than 5 µM. Take `C/C(=C\c1ccc(NC(=O)C2(NC(=O)c3ccc4c(c3)nc(-c3ccoc3)n4C3CCCCC3)CCCC2)cc1)C(=O)O` [compound 1083]: the EC50 was no more than 5 µM. The same measure for `O=C(O)/C=C/c1ccc(NC(=O)C2(NC(=O)c3ccc4c(c3)nc(-c3ccoc3)n4C3CCCCC3)CCCCC2)cc1` [compound 1072]: no more than 5 µM; for `O=C(O)/C=C/c1ccc(NC(=O)C2(NC(=O)c3ccc4c(c3)nc(-c3ccc[nH]3)n4C3CCCCC3)CCCC2)cc1` [compound 2007]: no more than 5 µM; for `C[C@@H](NC(=O)c1ccc2c(c1)nc(-c1ccccc1)n2C1CCCCC1)C(=O)Nc1ccc(/C=C/C(=O)O)cc1` [compound 2003]: 5 to 50 µM. The result for `Cc1c(C(=O)O)sc2ccc(NC(=O)C3(NC(=O)c4ccc5c(c4)nc(-c4ccoc4)n5C4CCCCC4)CCCC3)cc12` [compound 1099] reads no more than 5 µM; that for `CC[C@@H](NC(=O)c1ccc2c(c1)nc(-c1ccoc1)n2C1CCCCC1)C(=O)Nc1ccc(/C=C/C(=O)O)cc1` [compound 1075, (E)-3-[4-((R)-2-{[1-(1-Cyclohexyl-2-furan-3-yl-1H-benzoimidazol-5-yl)-methanoyl]-amino}-butanoylamino)-phenyl]-acrylic acid], 5 to 50 µM. The result for `CC(C)(C)OC(=O)N1CCC(NC(=O)c2ccc3c(c2)nc(-c2ccoc2)n3C2CCCCC2)(C(=O)Nc2ccc(/C=C/C(=O)O)cc2)CC1` [compound 1089] reads no more than 5 µM; that for `O=C(O)C=Cc1ccc(NC(=O)C2(NC(=O)c3ccc4c(c3)nc(-c3ccco3)n4C3CC4CCC3C4)CCCC2)cc1` (mixture of isomers) [compound 2017], no more than 5 µM. Molecule `O=C(O)C=Cc1ccc(NC(=O)C2(NC(=O)c3ccc4c(c3)nc(-c3ccoc3)n4C3CC4CCC3C4)CCCC2)cc1` (mixture of isomers) [compound 2021] showed an EC50 of no more than 5 µM. In turn, `CC(NC(=O)c1ccc2c(c1)nc(-c1ccoc1)n2C1CCCCC1)C(=O)Nc1ccc(C(=O)O)cc1` (stereo not drawn) [compound 1053] yielded an EC50 of 5 to 50 µM. In turn, `CC(C)(NC(=O)c1ccc2c(c1)nc(-c1ccoc1)n2C1CCCCC1)C(=O)Nc1ccc(/C=C/C(=O)O)cc1` [compound 1093] yielded an EC50 of no more than 5 µM. `O=C(O)/C=C/c1ccc(NC(=O)C2(NC(=O)c3ccc4c(c3)nc(-c3ccoc3)n4C3CCCC3)CCCC2)cc1` [compound 2013] had an EC50 of 5 to 50 µM. The result for `O=C(O)/C=C/c1ccc(NC(=O)C2(NC(=O)c3ccc4c(c3)nc(-c3ccoc3)n4C3CCCCC3)CCNCC2)cc1` [compound 1100] reads no more than 5 µM. `O=C(O)/C=C/c1ccc(NC(=O)C2(NC(=O)c3ccc4c(c3)nc(-c3ccoc3)n4C3CCCCC3)CC2)cc1` [compound 1070, (E)-3-(4-{[1-(1-{[1-(1-Cyclohexyl-2-furan-3-yl-1H-benzoimidazol-5-yl)-methanoyl]-amino}-cyclopropyl)-methanoyl]-amino}-phenyl)-acrylic acid] came in with an EC50 of 5 to 50 µM. The same measure for `O=C(NC1(C(=O)Nc2ccc(-c3ccc(C(=O)O)o3)cc2)CCCC1)c1ccc2c(c1)nc(-c1ccoc1)n2C1CCCCC1` [compound 1080]: no more than 5 µM; for `Cn1c(C(=O)O)cc2cc(NC(=O)C3(NC(=O)c4ccc5c(c4)nc(-c4ccoc4)n5C4CCCCC4)CCCNC3)ccc21` (stereo not drawn) [compound 1104]: no more than 5 µM.

In turn, `O=C(O)/C=C/c1ccc(NC(=O)C2(NC(=O)c3ccc4c(c3)nc(-c3ccccc3)n4C3CCCCC3)CCCC2)cc1` [compound 2006] displayed an EC50 of no more than 5 µM. The same measure for `CCn1c(C(=O)O)cc2cc(NC(=O)C3(NC(=O)c4ccc5c(c4)nc(-c4ccoc4)n5C4CCCCC4)CCCC3)ccc21` [compound 1085]: no more than 5 µM; for `Cc1cc(NC(=O)C2(NC(=O)c3ccc4c(c3)nc(-c3ccoc3)n4C3CCCCC3)CCCC2)ccc1/C=C/C(=O)O` [compound 1088]: no more than 5 µM. For the molecule `C[C@@H](NC(=O)c1ccc2c(c1)nc(-c1ccc[nH]1)n2C1CCCCC1)C(=O)Nc1ccc(/C=C/C(=O)O)cc1` [compound 2004], the half-maximal effective concentration (EC50) was in the range of 5 to 50 µM. Consider `O=C(O)/C=C/c1ccc(NC(=O)C2(NC(=O)c3ccc4c(c3)nc(-c3ccoc3)n4C3CCCCC3)CCC2)cc1` [compound 1094], for which the EC50 is no more than 5 µM. Take `CC1CCCCC1n1c(-c2ccoc2)nc2cc(C(=O)NC3(C(=O)Nc4ccc(C=CC(=O)O)cc4)CCCC3)ccc21` (stereo not drawn) [compound 2045]: the EC50 was no more than 5 µM. With `O=C(O)/C=C/c1ccc(NC(=O)C2(NC(=O)c3ccc4c(c3)nc(-c3ccccn3)n4C3CCCC3)CCCC2)cc1` [compound 2012], the EC50 was in the range of 5 to 50 µM.

`O=C(O)/C=C/c1ccc(NC(=O)CNC(=O)c2ccc3c(c2)nc(-c2ccoc2)n3C2CCCCC2)cc1` [compound 1079] yielded a concentration giving a half-maximal response (EC50) of 5 to 50 µM. The result for `O=C(O)/C=C/c1ccc(NC(=O)C2(NC(=O)c3ccc4c(c3)nc(-c3ccco3)n4C3CCCCC3)CCCC2)cc1` [compound 2049] reads no more than 5 µM; that for `C[C@@H](NC(=O)c1ccc2c(c1)nc(-c1ccccn1)n2C1CCCCC1)C(=O)Nc1ccc(/C=C/C(=O)O)cc1` [compound 2002], no more than 5 µM; that for `Cc1cc(=O)oc2cc(NC(=O)[C@@H](C)NC(=O)c3ccc4c(c3)nc(-c3ccoc3)n4C3CCCCC3)ccc12` [compound 1026], no more than 5 µM. The result for `C[C@@H]1CCCC[C@H]1n1c(-c2ccccn2)nc2cc(C(=O)NC3(C(=O)Nc4ccc(/C=C/C(=O)O)cc4)CCCC3)ccc21` (racemic) [compound 2044] reads no more than 5 µM. The result for `CC1CCCC(C)C1n1c(-c2cccs2)nc2cc(C(=O)NC3(C(=O)Nc4ccc(C=CC(=O)O)cc4)CCCC3)ccc21` (mixture of isomers) [compound 2035] reads no more than 5 µM; that for `O=C(O)/C=C/c1ccc(NC(=O)C2(NC(=O)c3ccc4c(c3)nc(-c3ccsc3)n4C3CCCCC3)CCCC2)cc1` [compound 2001], no more than 5 µM; that for `C[C@H](NC(=O)c1ccc2c(c1)nc(-c1ccoc1)n2C1CCCCC1)C(=O)Nc1ccc(/C=C/C(=O)O)cc1` [compound 1056], 5 to 50 µM. Turning to `C[C@@H](NC(=O)c1ccc2c(c1)nc(-c1ccoc1)n2C1CCCCC1)C(=O)Nc1ccc(/C=C/C(=O)O)cc1` [compound 1057], the EC50 was in the range of 5 to 50 µM.

Molecule `Cc1oc(-c2cccc(NC(=O)[C@@H](C)NC(=O)c3ccc4c(c3)nc(-c3ccoc3)n4C3CCCCC3)c2)cc1C(=O)O` [compound 1074] yielded an EC50 of no more than 5 µM. Take `CC(NC(=O)c1ccc2c(c1)nc(-c1ccoc1)n2C1CCCCC1)C(=O)Nc1ccc(-c2ccc(C(=O)O)o2)cc1` (stereo not drawn) [compound 1060]: the concentration giving a half-maximal response (EC50) lay within 5 to 50 µM. In turn, `CC1CCCC(C)C1n1c(-c2ccccn2)nc2cc(C(=O)NC3(C(=O)Nc4ccc(C=CC(=O)O)cc4)CCCC3)ccc21` (mixture of isomers) [compound 2036] came in with an EC50 of no more than 5 µM.
